The results in this text go back to patent US8574563B2 (Bristol-Myers Squibb Company, priority 2006, dated 2013).

This test has as its system HCV 1b-377-neo replicon cells. Kind of test: HCV replicon assay, HCV 1b-377-neo replicon cells (1b FRET). The note with it: Hepatitis C virus, HCV 1b-377-neo replicon cells; HCV 1b genotype; read-out: EC50 range against HCV 1b (Table 2, Range). Type of test: cell-based, Hepatitis C virus genotype 1b. A digest of the protocol: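 Compounds tested in HCV genotype 1b-377-neo replicon cells with a FRET read-out. Cells resistant to a reference NS5A inhibitor through a Y2065H NS5A mutation were run alongside wild-type cells.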
(In general: In antiviral work, replicon cells carry a viral genome segment that copies itself.)
`CCOC(=O)c1nc([C@@H]2CCCN2C(=O)[C@H](NC(=O)OC)c2ccccc2)[nH]c1-c1ccc(-c2ccc(-c3cnc([C@@H]4CCCN4C(=O)[C@H](NC(=O)OC)c4ccccc4)[nH]3)cc2)cc1` [Example J19, ethyl 2-((2S)-1-((2R)-2-((methoxycarbonyl)amino)-2-phenylacetyl)-2-pyrrolidinyl)-5-(4′-(2-((2S)-1-((2R)-2-((mcthoxycarbonyl)amino)-2-phenylacetyl)-2-pyrrolidinyl)-1H-imidazol-5-yl)-4-biphenylyl)-1H-imidazole-4-carboxylate]: the EC50 was 1 to 999 pM. As to `CO[C@@H](C(=O)N1CCC[C@H]1c1ncc(-c2ccc(-c3ccc(-c4cnc([C@@H]5CCCN5C(=O)[C@@H](c5ccccc5Cl)N(C)C)[nH]4)cc3)cc2)[nH]1)c1ccccc1` [Example 107-37, (1R)-1-(2-chlorophenyl)-2-((2S)-2-(5-(4′-(2-((2S)-1-((2R)-2-methoxy-2-phenylacetyl)-2-pyrrolidinyl)-1H-imidazol-5-yl)-4-biphenylyl)-1H-imidazol-2-yl)-1-pyrrolidinyl)-N,N-dimethyl-2-oxoethanamine], the EC50 lay within 1 to 999 pM.

Regarding `CC(C)[C@H](O)C(=O)N1[C@@H](C)CC[C@H]1c1nc(-c2ccc(-c3ccc(-c4c[nH]c([C@@H]5CC[C@H](C)N5C(=O)[C@@H](O)C(C)C)n4)cc3)cc2)c[nH]1` [Example M161, (2S,2′S)-1,1′-(4,4′-biphenyldiylbis(1H-imidazole-4,2-diyl((2S,5S)-5-methyl-2,1-pyrrolidinediyl)))bis(3-methyl-1-oxo-2-butanol)], the EC50 lay within 1000 to 99000 pM. In the case of `CN(C)[C@@H](C(=O)N1CCC[C@H]1c1ncc(-c2ccc(-c3ccc(-c4cnc([C@@H]5CCCN5C(=O)C5(c6ccccc6)CC5)[nH]4)cc3)cc2)[nH]1)c1ccccc1F` [Example 107-34, (1R)-1-(2-fluorophenyl)-N,N-dimethyl-2-oxo-2-((2S)-2-(5-(4′-(2-((2S)-1-((1-phenylcyclopropyl)carbonyl)-2-pyr-rolidinyl)-1H-imidazol-5-yl)-4-biphenylyl)-1H-imidazol-2-yl)-1-pyrrolidinyl)ethanamine] it was 1 to 999 pM; in that of `CCN(CC)[C@@H](C(=O)N1CCC[C@H]1c1ncc(-c2ccc(-c3ccc(-c4cnc([C@@H]5CCCN5C(=O)[C@@H](NC(=O)OC)C(C)C)[nH]4)cc3)cc2F)[nH]1)c1ccccc1` [Example D44, methyl ((1S)-1-(((2S)-2-(5-(4′-(2-((2S)-1-((2R)-2-(diethylamino)-2-phenylacetyl)-2-pyrrolidinyl)-1H-imidazol-5-yl)-3′-fluoro-4-biphenylyl)-1H-imidazol-2-yl)-1-pyrrolidinyl)carbonyl)-2-methylpropyl) carbamate], 1 to 999 pM; in that of `O=C([C@@H](c1ccccc1)N1CCCCC1)N1CCC[C@H]1c1ncc(-c2ccc(-c3ccc(-c4cnc([C@@H]5CCCN5C(=O)C5(c6ccccc6)CC5)[nH]4)cc3)cc2)[nH]1` [Example 107-22, 1-((1R)-2-oxo-1-phenyl-2-((2S)-2-(5-(4′-(2-((2S)-1-((1-phenylcyclopropyl)carbonyl)-2-pyrrolidinyl)-1H-imidazol-5-yl)-4-biphenylyl)-1H-imidazol-2-yl)-1-pyrrolidinyl)ethyl)piperidine], 1 to 999 pM.

As for `CCNC(=O)N[C@H](C(=O)N1CCC[C@H]1c1nc(-c2ccc(-c3ccc(-c4c[nH]c([C@@H]5CCCN5C(=O)[C@@H](NC(=O)NCC)C(C)C)n4)cc3)cc2)c[nH]1)C(C)C` [Example F64, 1-ethyl-3-((1S)-1-(((2S)-2-(4-(4′-(2-((2S)-1-((2S)-2-((ethylcarbamoyl)amino)-3-methylbutanoyl)-2-pyrrolidinyl)-1H-imidazol-4-yl)-4-biphenylyl)-1H-imidazol-2-yl)-1-pyrrolidinyl)carbonyl)-2-methylpropyl)urea], the EC50 was in the range of 1000 to 99000 pM. On to `COC(=O)Cc1[nH]c([C@@H]2CCCN2C(=O)[C@@H](NC(=O)OC)C(C)C)nc1-c1ccc(-c2ccc(-c3cnc([C@@H]4CCCN4C(=O)[C@@H](NC(=O)OC)C(C)C)[nH]3)cc2)cc1` [Example J14b.1, methyl (2-((2S)-1-(N-(methoxycarbonyl)-L-valyl)-2-pyrrolidinyl)-4-(4′-(2-((2S)-1-(N-(methoxycarbonyl)-L-valyl)-2-pyrrolidinyl)-1H-imidazol-4-yl)-4-biphenylyl)-1H-imidazol-5-yl)acetate], for which the EC50 was 1 to 999 pM. For `COC(=O)N[C@@H](C)C(=O)N1CCC[C@H]1c1ncc(-c2ccc(-c3ccc(-c4nc([C@@H]5CCCN5C(=O)[C@H](C)NC(=O)OC)[nH]c4CO)cc3)cc2)[nH]1` [Example J14f.1, methyl ((1S)-2-((2S)-2-(4-(4′-(4-(hydroxymethyl)-2-((2S)-1-(N-(methoxycarbonyl)-L-alanyl)-2-pyrrolidinyl)-1H-imidazol-5-yl)-4-biphenylyl)-1H-imidazol-2-yl)-1-pyrrolidinyl)-1-methyl-2-oxoethyl)carbamate] the value was 1000 to 99000 pM; for `COC(=O)N[C@@H](Cc1ccccn1)C(=O)N1CCC[C@H]1c1ncc(-c2ccc(-c3ccc(-c4cnc([C@@H]5CCCN5C(=O)[C@@H](NC(=O)OC)C(C)C)[nH]4)cc3)cc2)[nH]1` [cj-65, methyl ((1S)-1-(((2S)-2-(5-(4′-(2-((2S)-1-((2S)-2-((methoxycarbonyl)amino)-3-(2-pyridinyl)propanoyl)-2-pyrrolidinyl)-1H-imidazol-5-yl)-4-biphenylyl)-1H-imidazol-2-yl)-1-pyrrolidinyl)carbonyl)-2-methylpropyl)carbamate], 1 to 999 pM. For `O=C([C@@H](c1ccccc1)N1CCCCC1)N1C[C@@H](F)C[C@H]1c1ncc(-c2ccc(-c3ccc(-c4cnc([C@@H]5C[C@H](F)CN5C(=O)[C@@H](c5ccccc5)N5CCCCC5)[nH]4)cc3)cc2)[nH]1` [Example 24-7] the value was 1 to 999 pM; for `COC(=O)N[C@H](C(=O)N1[C@@H]2C[C@@H]2C[C@H]1c1ncc(-c2ccc(-c3ccc(-c4cnc([C@@H]5C[C@H]6C[C@H]6N5C(C)=O)[nH]4)cc3)cc2)[nH]1)C(C)C` [Example M138, methyl ((1S)-1-(((1R,3S,5R)-3-(4-(4′-(2-((1R,3S,5R)-2-acetyl-2-azabicyclo[3.1.0]hex-3-yl)-1H-imidazol-4-yl)-4-biphenylyl)-1H-imidazol-2-yl)-2-azabicyclo[3.1.0]hex-2-yl)carbonyl)-2-methylpropyl)carbamate], 1 to 999 pM. For `O=C([C@@H](c1ccccc1)N1CCCCC1)N1CCC[C@H]1c1ncc(-c2ccc(-c3ccc(-c4cnc([C@@H]5CCCN5C(=O)C5(C(F)(F)F)CC5)[nH]4)cc3)cc2)[nH]1` [Example 107-15, 1-((1R)-2-oxo-1-phenyl-2-((2S)-2-(5-(4′-(2-((2S)-1-((1-(trifluoromethyl)cyclopropyl)carbonyl)-2-pyrrolidinyl)-1H-imidazol-5-yl)-4-biphenylyl)-1H-imidazol-2-yl)-1-pyrrolidinyl)ethyl)piperidine] the value was 1 to 999 pM; for `COC(=O)N[C@@H](C)C(=O)N1CCC[C@H]1c1ncc(-c2ccc(-c3ccc(-c4cnc([C@@H]5CCCN5C(=O)[C@H](Cn5cccn5)NC(=O)OC)[nH]4)cc3)cc2)[nH]1` [cj-37, methyl ((1S)-2-((2S)-2-(5-(4′-(2-((2S)-1-(N-(methoxycarbonyl)-L-alanyl)-2-pyrrolidinyl)-1H-imidazol-5-yl)-4-biphenylyl)-1H-imidazol-2-yl)-1-pyrrolidinyl)-2-oxo-1-(1H-pyrazol-1-ylmethyl)ethyl)carbamate], 1 to 999 pM.

For `O=C([C@@H](c1ccccc1)N1CCCC1)N1CCC[C@H]1c1ncc(-c2ccc(-c3ccc(-c4cnc([C@@H]5CCCN5C(=O)[C@@H](c5ccccc5)N5CCCC5)[nH]4)cc3)cc2)[nH]1` [Example 17, 5,5′-(4,4′-biphenyldiyl)bis(2-((2S)-1-((2R)-2-phenyl-2-(1-pyrrolidinyl)acetyl)-2-pyrrolidinyl)-1H-imidazole)], the concentration giving a half-maximal response (EC50) was 1 to 999 pM.

For the compound `CCN(CC)[C@@H](C(=O)N1CCC[C@H]1c1ncc(-c2ccc(-c3ccc(-c4[nH]c([C@@H]5CCCN5C(=O)[C@H](C)NC(=O)OC)nc4C(F)(F)F)cc3)cc2)[nH]1)c1ccccc1` [Example J45, methyl ((1S)-2-((2S)-2-(5-(4′-(2-((2S)-1-((2R)-2-(diethylamino)-2-phenylacetyl)-2-pyrrolidinyl)-1H-imidazol-5-yl)-4-biphenylyl)-4-(trifluoromethyl)-1H-imidazol-2-yl)-1-pyrrolidinyl)-1-methyl-2-oxoethyl)carbamate], the EC50 lay within 1 to 999 pM. For `COCC(=O)N[C@H](C(=O)N1CCC[C@H]1c1nc(-c2ccc(-c3ccc(-c4c[nH]c([C@@H]5CCCN5C(=O)[C@@H](NC(=O)COC)C(C)C)n4)cc3)cc2)c[nH]1)C(C)C` [Example F62, 2-methoxy-N-((1S)-1-(((2S)-2-(4-(4′-(2-((2S)-1-((2S)-2-((methoxyacetyl)amino)-3-methylbutanoyl)-2-pyrrolidinyl)-1H-imidazol-4-yl)-4-biphenylyl)-1H-imidazol-2-yl)-1-pyrrolidinyl)carbonyl)-2-methylpropyl)acetamide] the value was 1000 to 99000 pM; for `O=C(c1ccccc1)N1CCC[C@H]1c1ncc(-c2ccc(-c3ccc(-c4cnc([C@@H]5CCCN5C(=O)c5ccccc5)[nH]4)cc3)cc2)[nH]1` [Example 6, 5,5′-(4,4′-biphenyldiyl)bis(2-((2S)-1-benzoyl-2-pyrrolidinyl)-1H-imidazole)], 1000 to 99000 pM. In the case of `C[C@@H](C(=O)N1CCC[C@H]1c1ncc(-c2ccc(-c3ccc(-c4cnc([C@@H]5CCCN5C(=O)[C@H](C)N(C)Cc5ccccc5)[nH]4)cc3)cc2)[nH]1)N(C)Cc1ccccc1` [Example 24-4f, (2S,2′S)-1,1′-(4,4′-biphenyldiylbis(1H-imidazole-5,2-diyl(2S)-2,1-pyrrolidinediyl))bis(N-benzyl-N-methyl-1-oxo-2-propanamine)] it was 100000 to 999000 pM.

As usually defined, the EC50 is the concentration giving half of the maximal effect.
